US9676727B2, “Myxovirus therapeutics, compounds, and uses related thereto” (priority 2011, dated 2017)
In brackets after ≈: the same amount, converted by molar mass. Read-outs that look alike come from different tables or passages of the source. Values belong to the compound of their own block, whether it stands above or below them.

Experiments:
[1] = Aqueous solubility by nephelometry; format: physicochemical; settings: for solubility: buffer, pH 7.4, aqueous buffer, kinetic from dmso stock
MV-Alaska [2] = experiment: Viral CPE-reduction assay (MeV-Alaska in Vero-SLAM cells, crystal violet); format: cell-based, Measles virus (MeV); settings: Measles morbillivirus
Description: Methods for evaluating viral activity are provided for in Yoon et al., J Biomol Screen., 2008, 13(7): 591-608 and Krumm et al., PLoS ONE, 2011, 6(5), e20069, both hereby incorporated by reference in their entirety. In certain instances, Vero-SLAM cells were infected with MeV-Alaska in four replicates per compound concentration in a 96-well plate format at an MOI of 0.4 pfu/cell in the presence of the inhibitor. At 96 hours post-infection, cell monolayers were subjected to crystal violet staining (0.1% crystal violet in 20% ethanol), and the absorbance of dried plates at 560 nm determined. Virus-induced cytopathicity was then calculated according to the formula [% rel. CPE=100-(experimental-minimum)/(maximum-minimum)*100], with minimum referring to infected, vehicle-treated wells and maximum to mock-infected wells.

MV-Alaska [3] = experiment: Virus yield (virus titer) reduction assay; format: cell-based, Measles virus (MeV); settings: Measles morbillivirus
[4] = Pharmacokinetic study in rat, plasma concentration after dosing; format: in vivo, Sprague-Dawley rat; settings: for AUC(0-inf) / AUC (0-t) / Cmax / Tmax / half-life: suspension in PEG200/0.5% methylcellulose (10/90); for AUC (0-t): read-out: AUC (0-t); for Cmax: read-out: Cmax; for Tmax: read-out: Tmax; for half-life: read-out: T½ (converted)
Description: Preliminary pharmacokinetic (PK) studies in the Sprague-Dawley rat compared AS-136a with compounds 2k and 2o following p.o. dosing by oral gavage at 10 mg/kg and 50 mg/kg in a PEG200/0.5% methylcellulose (10/90) vehicle (n=4/group).
The data from the preliminary pharmacokinetic studies using the 6-hour time point are reported for comparison purposes. […] On the basis of its excellent in vitro potency, good solubility and pharmacokinetic profile, compound 2o was chosen for further bioavailability evaluation.

MTT cytotoxicity = format: cell-based; settings: African green monkey, Vero cells; averages of at least three experiments; highest concentration assessed 75 μM
[5] = Sprague-Dawley, plasma, oral 10 mg/kg
[6] = Sprague-Dawley, plasma, oral 50 mg/kg

- solubility ([1]; Nephelometer, read-out: Aqueous solubility (μg/ml) Test): 60 µg/mL (≈ 113 µM)
- solubility ([1]; nephelometry, read-out: aqueous solubility): ~60 µg/mL (≈ 113 µM)
- EC50 (MV-Alaska [2]; Table 1, piperidine series, read-out: EC50 (μM) (MV-Alaska) (CPE inhib.)): 4.5 µM
- EC50 (MV-Alaska [2]; Table 3, averages of four experiments, concentration range 2.3-75 μM, read-out: EC50 (μM) (MV-Alaska) CPE inhibition): 4.5 µM
- AUC(0-inf) [4, 5]: 818 ng·h/mL
- AUC (0-t) [4, 5]: 683 ng·h/mL
- Cmax [4, 5]: 195 ng/mL
- Tmax [4, 5]: 1.1 h
- half-life [4, 5]: 2.2 h
- AUC(0-inf) [4, 6]: 7860 ng·h/mL
- AUC (0-t) [4, 6]: 3520 ng·h/mL
- Cmax [4, 6]: 823 ng/mL
- Tmax [4, 6]: 1.5 h
- half-life [4, 6]: 6.5 h
- bioavailability ([4]; Sprague-Dawley, plasma, oral, 2 mg/kg i.v. and 10 mg/kg p.o., read-out: oral bioavailability (F)): 39%
- exposure (AUC/Cmax) increase in rat relative to AS-136a ([4]; p.o.): 10 fold
- dose proportionality ([4]; p.o., range of 10 mg/kg to 50 mg/kg): near dose proportionality
SMILES: Cn1nc(C(F)(F)F)cc1C(=O)Nc1ccc(S(=O)(=O)N2CCCCC2CCN2CCOCC2)cc1 (single isomer, unassigned) [Compound 2o, 1-methyl-N-(4-((2-(2-morpholinoethyl)piperidin-1-yl)sulfonyl)phenyl)-3-(trifluoromethyl)-pyrazole-5-carboxamide]
- EC50 (MV-Alaska [3]; MV-Alaska, read-out: EC50 in the virus titer reduction assay): 0.02 µM
- EC50 (MV-Alaska [3]; averages of two to four experiments ± SEM, highest concentration assessed 1 μM, read-out: EC50 (μM) (MV-Alaska) virus titer reduction): 0.02 µM
- CC50 (MTT cytotoxicity): > 75 µM

- Aqueous solubility (μg/ml) Test ([1]; Nephelometer, buffer pH=7.4): 67 µg/mL
- EC50 (MV-Alaska [2]; Table 2, phenyl and acyclic series, read-out: EC50 (μM) (MV-Alaska) (CPE inhibition)): 4.5 µM
SMILES: Cn1nc(C(F)(F)F)cc1C(=O)Nc1ccc(S(=O)(=O)c2ccccc2O)cc1 [Compound 3c, N-(4-((2-hydroxyphenyl)sulfonyl)phenyl)-1-methyl-3-(trifluoromethyl)-pyrazole-5-carboxamide]
- CC50 (MTT cytotoxicity): ≥ 75 µM
